In patent US11420963B2, “Rebamipide prodrugs, preparation method and use thereof” (SAMJIN PHARMACEUTICAL CO., LTD., priority 2012, dated 2022):
“Also recorded” adds a separate entry of the source. Read-outs that look alike come from different tables or passages of the source.

Legend:
[1] = cited from earlier work
[2] = due to low solubility and low intestinal permeability; cited from earlier work
[3] = in vivo; cited from earlier work
[4] = test system: acetic acid-induced gastric ulcers; details: rats; cited from earlier work
[5] = Hydrolysis of prodrug into acting drug (rebamipide) in whole blood of rat, HPLC; format: in vitro ADME; details: for half-life at 0.196 mg/mL: half life of conversion from prodrug to rebamipide, read-out: Conversion Time in Whole Rat Blood (t1/2)
Experimental: Frozen rat blood was thawed for about 1 hr in a 37° C. water bath and homogenized.
A stock solution was prepared by dissolving 10 mg of the compound of each Example in 1 mL of CAN. Optionally, a buffer (prepared by mixing 750 mL of a solution of Na2HPO4 0.58 g and KH2PO4 2 g in 1 L of H2O with 250 mL of CAN) was added. In a 4 mL tube, 40 μL of the stock solution was uniformly mixed with 2 mL of blood by shaking, followed by storage at 30 rpm in a water bath.
At 0, 2, 4, 6, 8, 10, 15, 30, 45, 60, 90, and 120 min after storage, a sample was taken in a volume of 200 μL, diluted in 400 μL of CAN, vortexed for 1 min, and centrifuged for 1 min. The supernatant was analyzed by HPLC (but, for the compound of Example 47, sampling was performed at 0, 1, 3, 5, 7, and 10 min after storage). In addition, measurement was made of the time that it took for the prodrugs to be converted into the acting drug (rebamipide).

SMILES	half-life at 0.196 mg/mL [5]	also measured
O=C(NC(Cc1cc(=O)[nH]c2ccccc12)C(=O)O)c1ccc(Cl)cc1 (stereo not drawn) [Rebamipide]		aqueous solubility ([1]; pH 3): approximately 0.0001 % (w/v); aqueous solubility ([1]; pH 7): approximately 0.013 % (w/v); solubility in solvents (in words) ([1]; solvent named in the value): freely soluble in dimethylformamide; also recorded: slightly soluble in methanol and ethanol; also recorded: almost insoluble in ether and water; BCS class [2]: Class IV; bioavailability [3]: around 5%; effect on ulcer size, relapse rate and cure rate [4]: reduces sizes and relapse rates of the ulcer while improving the cure rate
CCN(CC)CCSC(=O)C(Cc1cc(=O)[nH]c2ccccc12)NC(=O)c1ccc(Cl)cc1 (stereo not drawn) [Example 121, S-(2-Diethylamino)ethyl 2-(4-chlorobenzoylamino)-3-(2-oxo-1,2-dihydroquinolin-4-yl)thiopropionate]	< 2 min	
CCC(OC(=O)C(Cc1cc(=O)[nH]c2ccccc12)NC(=O)c1ccc(Cl)cc1)C(=O)N1CCN(C)CC1 (stereo not drawn) [Example 100, 1-(4-Methylpiperazine-1-carbonyl)propyl 2-(4-chlorobenzoylamino)-3-(2-oxo-1,2-dihydroquinolin-4-yl)propionate]	< 2 min	
CN(C)CCOC(=O)C(Cc1cc(=O)[nH]c2ccccc12)NC(=O)c1ccc(Cl)cc1 (stereo not drawn) [Example 14, 2-Dimethylaminoethyl 2-(4-chlorobenzoylamino)-3-(2-oxo-1,2-dihydroquinolin-4-yl)propionate]	< 2 min	
CON(C)C(=O)COC(=O)C(Cc1cc(=O)[nH]c2ccccc12)NC(=O)c1ccc(Cl)cc1 (stereo not drawn) [Example 102, (Methoxymethylcarbamoyl)methyl 2-(4-chlorobenzoylamino)-3-(2-oxo-1,2-dihydroquinolin-4-yl)propionate]	< 2 min	
Cc1oc(=O)oc1CSC(=O)C(Cc1cc(=O)[nH]c2ccccc12)NC(=O)c1ccc(Cl)cc1 (stereo not drawn) [Example 155, S-(5-Methyl-2-oxo-[1,3]dioxol-4-yl)methyl 2-(4-chlorobenzoylamino)-3-(2-oxo-1,2-dihydroquinolin-4-yl)thiopropionate]	< 2 min	
CCN(CC)CCOC(=O)C(Cc1cc(=O)[nH]c2ccccc12)NC(=O)c1ccc(Cl)cc1 (stereo not drawn) [Example 16, 2-Diethylaminoethyl 2-(4-chlorobenzoylamino)-3-(2-oxo-1,2-dihydroquinolin-4-yl)propionate]	< 2 min	
O=C(NC(Cc1cc(=O)[nH]c2ccccc12)C(=O)SCCN1CCCC1)c1ccc(Cl)cc1 (stereo not drawn) [Example 144, S-(2-Pyrrolidin-1-yl)ethyl 2-(4-chlorobenzoylamino)-3-(2-oxo-1,2-dihydroquinolin-4-yl)thiopropionate]	< 2 min	

Further lines, with some results ahead:

half-life at 0.196 mg/mL [5]	SMILES	also measured
< 2 min	O=C(COC(=O)C(Cc1cc(=O)[nH]c2ccccc12)NC(=O)c1ccc(Cl)cc1)OCCN1CCOCC1 (stereo not drawn) [Example 105, 2-Morpholin-4-yl-ethoxycarbonylmethyl 2-(4-chlorobenzoylamino)-3-(2-oxo-1,2-dihydroquinolin-4-yl)propionate]	
2.57 min	O=C(NC(Cc1cc(=O)[nH]c2ccccc12)C(=O)OCCN1CCOCC1)c1ccc(Cl)cc1 (stereo not drawn) [Example 47, 2-Morpholin-4-ylethyl 2-(4-chlorobenzoylamino)-3-(2-oxo-1,2-dihydroquinolin-4-yl)propionate]	time to complete conversion into rebamipide ([5]; FIG. 1): about 10 min
< 2 min	O=C(OCCN1CCOCC1)OCOC(=O)C(Cc1cc(=O)[nH]c2ccccc12)NC(=O)c1ccc(Cl)cc1 (stereo not drawn) [Example 109, 2-Morpholin-4-yl-ethoxycarbonyloxymethyl 2-(4-chlorobenzoylamino)-3-(2-oxo-1,2-dihydroquinolin-4-yl)propionate]	
< 2 min	CN1CCN(C(=O)COC(=O)C(Cc2cc(=O)[nH]c3ccccc23)NC(=O)c2ccc(Cl)cc2)CC1 (stereo not drawn) [Example 99, 2-(4-Methylpiperazin-1-yl)-2-oxoethyl 2-(4-chlorobenzoylamino)-3-(2-oxo-1,2-dihydroquinolin-4-yl)propionate]	
< 2 min	O=C(NC(Cc1cc(=O)[nH]c2ccccc12)C(=O)SCCN1CCOCC1)c1ccc(Cl)cc1 (stereo not drawn) [Example 151, S-(2-Morpholin-4-yl)ethyl 2-(4-chlorobenzoylamino)-3-(2-oxo-1,2-dihydroquinolin-4-yl)propionate]	
< 2 min	CCC(OC(=O)C(Cc1cc(=O)[nH]c2ccccc12)NC(=O)c1ccc(Cl)cc1)C(=O)OCCN1CCOCC1 (stereo not drawn) [Example 106, 2-Morpholin-4-ylethyl 2-[2-(4-chlorobenzoylamino)-3-(2-oxo-1,2-dihydroquinolin-4-yl)propionyloxy]butyrate]	
< 2 min	O=C(NC(Cc1cc(=O)[nH]c2ccccc12)C(=O)OCCN1CCCCC1)c1ccc(Cl)cc1 (stereo not drawn) [Example 44, 2-Piperidin-1-ylethyl 2-(4-chlorobenzoylamino)-3-(2-oxo-1,2-dihydroquinolin-4-yl)propionate]	
